Drawing on article PMC5905603, “Purification and characterisation of a quorum quenching AHL-lactonase from the endophytic bacterium Enterobacter sp. CS66” (FEMS Microbiology Letters, 2018), this text covers Km for five compounds.

The test system of this assay is T1, AiiE.
T1 construct: full-length ORF (ca. 750 bp) in pET-19m, E. coli Rosetta DE3; His6 tag cut off by TEV; 240B1
Put plainly: phenol red proton-release assay (A557), Lineweaver-Burk. Format: biochemical, Enterobacter sp. CS66. Particulars: 1 mM HEPES, 200 mM NaCl, 50 uM phenol red, pH 7.5. The source says: phenol red proton-release assay (A557), Lineweaver-Burk on AiiE
The Km is the substrate concentration at which the rate is half of its maximum. Turning to `CCCC(=O)N[C@H]1CCOC1=O` [C4-HSL], the Michaelis-Menten constant (Km) worked out at 6.01 mM.
On to `CCCCCC(=O)N[C@H]1CCOC1=O` [C6-HSL], for which the Michaelis constant (Km) stood at 7.88 mM.
As for `CCCCCCCC(=O)N[C@H]1CCOC1=O` [C8-HSL], the Km stood at 10.3 mM.
`CCCCCCCCCC(=O)N[C@H]1CCOC1=O` [C10-HSL]: the Michaelis-Menten constant (Km) was 14.9 mM.
Take `CCCCCCCCCCCC(=O)N[C@H]1CCOC1=O` [C12-HSL]: the Michaelis constant (Km) was 15.2 mM.
